Consider one compound from patent publication US20020187126A1, “Methods for viral oncoapoptosis in cancer therapy” (priority 2001, published 2002).

Structures are written as SMILES.

The test system of test [1] is primary human foreskin fibroblast (HFF) cells. Put plainly: DNA laddering by ethidium bromide staining in HFF cells. Format: cell-based. The conditions noted are these: low molecular weight DNA. How it is done:
(§1) Biochemical induction of apoptosis. Cell apoptosis was induced by the addition of staurosporine (Calbiochem, San Diego, Calif.) to the medium at a final concentration of either 1 or 2 μM. Cells were maintained in the presence of staurosporine for 24 h. TNF (Sigma) was added directly to medium at a final concentration of 10 ng/ml in combination with cycloheximide (Sigma) at a final concentration of 10 μg/ml for 24 h.
DNA laddering by ethidium bromide staining. Low molecular weight DNA was isolated from cells as described (Koyama and Miwa, J. Virol. 1997, 71:2567; Aubert and Blaho, J. Virol. 1999, 73:2803). The DNA samples were subjected to electropheresis in a horizontal 1.5% agarose gel, followed by staining with 10 μg/ml ethidium bromide. DNA was visualilzed by UV light transillumination and photographed with Polaroid 67 film.
The transformed cell lines we analyzed above were of human origin. Thus, it was necessary to confirm our MEF cell results using a primary human cell line. We assessed the p53 status, the susceptibility of rdHSV-1 infection, and the ability to undergo apoptosis of primary human foreskin fibroblast (HFF) cells by immunoblotting, Hoechst staining, and DNA laddering assays. […] Finally, we stained the infected and treated HFF cells with Hoechst DNA dye and visualized cellular and nuclear morphologies by fluorescence and phase-contrast microscopy. […]

The test system is the same in test [2]. Put plainly: Hoechst staining, fluorescence and phase-contrast microscopy of HFF cells. It is filed as cell-based. The conditions noted are these: Hoechst DNA dye. How it is done: as §1
Microscopic analyses and computer graphics. Infected cell phenotypes were documented by phase-contrast light microscopy using an Olympus CK2/PM-10AK3 system with an attached 35 mm camera. For analyses of chromatin condensation, cells were grown and infected (as described above) in a 35-mm plate. At 24 hours post infection, the cells were incubated with the DNA dye Hoechst 33258 (Sigma) at a final concentration of 5 μg/ml in PBS for 15 minutes at 37° C. […]
The transformed cell lines we analyzed above were of human origin. […] We assessed the p53 status, the susceptibility of rdHSV-1 infection, and the ability to undergo apoptosis of primary human foreskin fibroblast (HFF) cells by immunoblotting, Hoechst staining, and DNA laddering assays. […] Finally, we stained the infected and treated HFF cells with Hoechst DNA dye and visualized cellular and nuclear morphologies by fluorescence and phase-contrast microscopy. […]

For a further test, the system named is primary MEF cells. Put plainly: Phase-contrast microscopy and Hoechst staining of infected or treated MEF cells. Format: cell-based, mouse. The conditions noted are these: Hoechst dye, 15 h. An excerpt:
Cells and viruses. All cells were maintained in Dulbecco's modified Eagle's medium (DMEM) containing 5% fetal bovine serum. Human larynx epidermoid carcinoma HEp-2 (Moore, Cancer Res.1955, 15:598-605), epithelial cervical carcinoma HeLa S3 (Puck, et al, J. Exp. Med.1956, 103:273-284, osteosarcoma 143B (Post and Roizman, Cell 1981, 25:227-32), and African green monkey kidney Vero (Yasumura and Kawakita, Nippon Rinsho 1963, 21:1209) cells were obtained from the American Type Culture Collection (Rockville, Md. V2.2 is a derivative Vero cell line, which carries a stably integrated copy of the ICP27 gene (Rice and Knipe, J Virol. 1990, 64:1704-15). Adenovirus type 5 transformed human primary embryonal kidney 293 (Graham et al., J Gen Virol. 1977, 36:59-74) and SV40 T antigen expressing 293T cells were obtained from the ATCC. […]
To assess whether rdHSV-1 triggers apoptosis in infected MEF, cell morphologies were documented by phase-contrast microscopy and condensed nuclei were visualized following staining with a fluorescent Hoechst dye. […] Cells were analyzed 15 h post-infection. […] Few, if any, cells with condensed nuclei were detected following infection with either rdHSV-1 strain. […]

In a further test the test system is 293 cells. Description: Immunoblots for PARP, caspase-3 and p53 in infected or treated 293 cells. Format: cell-based, human. The procedure:
Cells and viruses. All cells were maintained in Dulbecco's modified Eagle's medium (DMEM) containing 5% fetal bovine serum. […]
Extraction of cells and denaturing gel electrophoresis. Whole extracts of cells were obtained as previously described (Aubert and Blaho, J Virol. 1999, 73:2803-2813; Aubert et al., J. Virol. 1999, 73:10359-70) Protein concentrations were measured using a modified Bradford assay (Biorad) as recommended by the vendor. […]
The results above indicate that cells whose p53 is undermodified are susceptible to apoptosis triggered by rdHSV-1 while those which accumulate phosphorylated p53 are resistant. To confirm the prediction that the amount of phosphorylated p53 present in a given cell is an accurate indicator of whether the cell will be killed by an rdHSV-1, 293 cells were analyzed. […]
In general terms: In western blotting, separated proteins are transferred to a membrane and probed.

With `CN[C@@H]1C[C@H]2O[C@@](C)([C@@H]1OC)n1c3ccccc3c3c4c(c5c6ccccc6n2c5c31)C(=O)NC4` [staurosporine], the “DNA laddering / fragmentation” value in test [1] is recorded as “DNA fragmentation that migrated as a smear”. Moreover, in test [2], the “condensed chromatin / features of apoptosis” value is listed as “showed features indicative of apoptosis”. Besides, the “cells with condensed nuclei / chromatin” value in the test with primary MEF cells is on record as “significant number of small apoptotic cells which contained condensed chromatin”. For the same compound, in the test on 293 cells (environmental stimulators, double dose of STS), the “signs of apoptosis (PARP processing)” value is “no signs of apoptosis were detected”. For the same compound, the “apoptosis (PARP and caspase-3 processing)” value in the test on 293 cells (presence or absence of CHX) is recorded as “did not undergo apoptosis”.
